According to patent publication US20170044372A1, “CELL TRACKING REAGENTS AND THEIR METHODS OF USE” (LIFE TECHNOLOGIIES CORPORATION, priority 2014, published 2017):

Tested on: HeLa cells
Test: CYQUANT Direct cytotoxicity / cell viability assay
Assay type: cell-based
Settings: 96 well plate, labeled at 10 μM for 30 mins at 37° C. in LCIS, assayed on days 1, 2 and 3, compared to DMSO alone
Procedure: FIG. 2: Lack of cytotoxicity of Compound 10, as measured by the CYQUANT Direct (Thermo Fisher Scientific) method. Fluorescence on the Y-axis is proportional to cell population viability. HeLa cells plated in a 96 well plate were labeled with CELLTRACKER Red, Compound 10, or DMSO in Live Cell Imaging Solution (LCIS) at 10 μM concentration for 30 mins at 37° C. The LCIS was then aspirated from cells and complete media added for an overnight incubation. The following day (Day 1) cells were assayed for cytotoxicity using the CYQUANT Direct assay (Thermo Fisher Scientific).
A549, HeLa and U-2 OS cells were plated in a 24-well plate at a concentration of 2000 cells/well. Compound 10 was added at a final concentration of 10 μM in Live Cell Imaging Solution (Life Technologies Corporation, Carlsbad, Calif.) and incubated for 30-60 min at 37° C. Cells were washed in dPBS and the cell media was added. Cells were scanned using the scan routine on an EVOS FL Auto microscope (Thermo Fisher Scientific) for 10% of the middle of the well. The same scan routine was used on Days 2, 3 and 4 of growth. Cell viability was assessed using CYQUANT Direct (Thermo Fisher Scientific) using the same scan routine as described above. The results in HeLa cells can be seen in FIGS. 1 and 2.

Structure (SMILES): CN(C)c1ccc2c(-c3ccc(C(=O)ON4C(=O)CCC4=O)cc3C(=O)O)c3ccc(=[N+](C)C)cc-3oc2c1 [Compound 10]
- cytotoxicity as measured by the CYQUANT Direct method (fluorescence proportional to cell population viability): no cytotoxicity
